Among the data in ChEMBL document CHEMBL3826971 (Bioorg Med Chem Lett, 2016) are LD50 values, retold here.

Structures are written as SMILES.

This series is described as follows: Acute toxicity in ip dosed mouse measured after 72 hrs. It counts as organism-based. To be noted: in vivo.

Broadly, the LD50 is the dose expected to kill half of the subjects tested. The molecule `CN(C)C(=O)Oc1cccc([N+](C)(C)C)c1.COS(=O)(=O)[O-]` [NEOSTIGMINE METHYLSULFATE] came in with an LD50 at 72 h of 0.51 mg/kg.
`CN(C)C(=O)Oc1ccc[n+](C)c1.[Br-]` [PYRIDOSTIGMINE BROMIDE]: the LD50 at 72 h is 3.3 mg/kg.
